Tested on: Candida albicans
Experiment: Fungicidal effect, ratio of colony forming units to total cell number
Assay type: cell-based
Details: 0.625 μg AmB/ml, after 30 hours of incubation
Procedure: Aliquots of yeast cells (50 μl) were removed from the 96 well plates and serially diluted (up to 1:10000 for plating onto agar plates) and counted using a hemocytometer. Fifty μl of the diluted yeast cells were plated onto YPD agar plates and incubated for 24 hours at 37° C. Yeast colonies were counted using a BioRad Fluor-S Multi-Imager equipped with Quanitity One™ software.
Yeast cells treated with AmBisome, AmB/DMSO and AmB/cochleates (0.625 μg AmB/ml) were examined for the ratio of colony forming units to total cell number after 30 hours of incubation. […] The AmBisome was not as effective, resulting in 52% yeast viability (FIG. 7).

## C[C@@H]1[C@H](O)[C@@H](C)/C=C/C=C/C=C/C=C/C=C/C=C/C=C/[C@H](O[C@@H]2O[C@H](C)[C@@H](O)[C@H](N)[C@@H]2O)C[C@@H]2O[C@](O)(C[C@@H](O)C[C@@H](O)[C@H](O)CC[C@@H](O)C[C@@H](O)CC(=O)O[C@H]1C)C[C@H](O)[C@H]2C(=O)O [AmB/DMSO, Amphotericin B]
  yeast viability (ratio of colony forming units to total cell number): 12%

From patent US6592894B1, “Hydrogel-isolated cochleate formulations, process of preparation and their use for the delivery of biologically relevant molecules” (BioDelivery Sciences International, Inc., priority 1999, dated 2003)
